The test system of this test is Wnt pathway (TCF-dependent transcription in HEK293 luciferase reporter cell line with ER-DSH construct). The test is described as follows: Cellular assay for Wnt pathway activity (luciferase reporter). Format: cell-based. The note with it: Homo sapiens; Wnt pathway inhibition, HEK293 luciferase reporter cells (ER-DSH, TCF promoter), 24 hours incubation, estrogen-induced. The procedure, abridged: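 Luminescent luciferase read-out after 24 h compound exposure at 1 nM to 30 μM, with TCF-driven transcription switched on by estrogen addition. IC50 values come from curve fits of data normalized against the vehicle-only control.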
Turning to `CC(=O)Nc1ccc(-c2ccc(Oc3cncc(NCCN(C)C(C)=O)n3)c(F)c2)cn1` [Compound 258, N-[5-(4-{6-[2-(Acetyl-methyl-amino)-ethylamino]-pyrazin-2-yloxy}-3-fluoro-phenyl)-pyridin-2-yl]-acetamide], the IC50 (commonly the point on the concentration scale where inhibition reaches its midpoint) was in the range of 200 to 1000 nM.
`CC(=O)Nc1cccc(-c2ccc(Oc3cncc(NCCN(C)C(C)=O)n3)c(F)c2)n1` [Compound 259, N-(2-{6-[4-(6-Acetylamino-pyridin-2-yl)-2-fluoro-phenoxy]-pyrazin-2-ylamino}-ethyl)-N-methyl-acetamide]: the IC50 lay within 1000 to 10000 nM.
The figure for `CC(=O)Nc1ccc(-c2ccc(Oc3cncc(NCCN(C)C(C)=O)n3)cc2)cn1` [Compound 260, N-(2-{6-[4-(6-Acetylamino-pyridin-3-yl)-phenoxy]-pyrazin-2-ylamino}-ethyl)-N-methyl-acetamide] is 200 to 1000 nM; for `CC(=O)N(C)CCN(C)c1cncc(Oc2ccc(-c3ccnnc3)cc2)n1` [Compound 261, N-Methyl-N-(2-{methyl-[6-(4-pyridazin-4-yl-phenoxy)-pyrazin-2-yl]-amino}-ethyl)-acetamide] it is less than 200 nM.
`CC(=O)N(C)CCNc1cncc(Oc2ccc(-c3ccc(F)cn3)cc2)n1` [Compound 262, N-(2-{6-[4-(5-Fluoro-pyridin-2-yl)-phenoxy]-pyrazin-2-ylamino}-ethyl)-N-methyl-acetamide] gave an IC50 of 1000 to 10000 nM.
`Nc1cnc(-c2ccc(Oc3cncc(CCCN4CCCCC4=O)n3)cc2)cn1` [Compound 263, 1-(3-{6-[4-(5-Amino-pyrazin-2-yl)-phenoxy]-pyrazin-2-yl}-propyl)-piperidin-2-one]: the IC50 is less than 200 nM.
`CC(=O)N(C)CCCc1cncc(Oc2ccc(F)cc2)n1` [Compound 264, N-{3-[6-(4-Fluoro-phenoxy)-pyrazin-2-yl]-propyl}-N-methyl-acetamide] had an IC50 of 1000 to 10000 nM.
On to `CNCc1ccc(-c2ccc(Oc3cncc(N(C)CCN(C)C(C)=O)n3)cc2)cn1` [Compound 265, N-Methyl-N-[2-(methyl-{6-[4-(6-methylaminomethyl-pyridin-3-yl)-phenoxy]-pyrazin-2-yl}-amino)-ethyl]-acetamide], for which the IC50 is less than 200 nM.
Turning to `CC(=O)N(C)CCCc1cncc(Oc2ccc(-c3ccncc3C#N)cc2F)n1` [Compound 266, N-(3-{6-[4-(3-Cyano-pyridin-4-yl)-2-fluoro-phenoxy]-pyrazin-2-yl}-propyl)-N-methyl-acetamide], the IC50 was less than 200 nM.
The figure for `CC(=O)N(C)CCCc1cncc(Oc2ccc(-c3ccc(N4CCOCC4)nc3)cc2F)n1` [Compound 267, N-(3-{6-[2-Fluoro-4-(6-morpholin-4-yl-pyridin-3-yl)-phenoxy]-pyrazin-2-yl}-propyl)-N-methyl-acetamide] is 200 to 1000 nM.
Consider `CC(=O)N(C)CCCc1cncc(Oc2ccc(-c3ccc(C)cn3)cc2F)n1` [Compound 268, N-(3-{6-[2-Fluoro-4-(5-methyl-pyridin-2-yl)-phenoxy]-pyrazin-2-yl}-propyl)-N-methyl-acetamide], for which the half-maximal inhibitory concentration (IC50) was less than 200 nM.
`CC(=O)N(C)CCCc1cncc(Oc2ccc(-c3cnc(N)cn3)cc2F)n1` [Compound 269, N-(3-{6-[4-(5-Amino-pyrazin-2-yl)-2-fluoro-phenoxy]-pyrazin-2-yl}-propyl)-N-methyl-acetamide]: the half-maximal inhibitory concentration (IC50) fell in the range of 200 to 1000 nM.
Take `CC(=O)N(C)CCCc1cncc(Oc2ccc(-c3ccncc3)cc2F)n1` [Compound 270, N-{3-[6-(2-Fluoro-4-pyridin-4-yl-phenoxy)-pyrazin-2-yl]-propyl}-N-methyl-acetamide]: the IC50 fell in the range of 200 to 1000 nM.
Take `CC(=O)N(C)CCN(C)c1cncc(Oc2ccc(-c3ccc(CCNC(=O)CCCCCNC(=O)CCCCC4SCC5NC(=O)NC54)cc3)cc2)n1` (centres unmarked) [Compound 271, 6-[5-(2-Oxo-hexahydro-thieno[3,4-d]imidazol-6-yl)-pentanoyl-amino]-hexanoic acid {2-[4′-(6-{[2-(acetyl-methyl-amino)-ethyl]-methyl-amino}-pyrazin-2-yloxy)-biphenyl-4-yl]-ethyl}-amide]: the IC50 is less than 200 nM.

(Values after US9493444B2 (Merck Patent GmbH, priority 2012, dated 2016).)
